Source: patent US9550764B2, “Fused heterocyclic compounds and their use” (The Institute of Cancer Research: Royal Cancer Hospital, priority 2012, dated 2017)
Like-named read-outs stand apart in the source and are kept apart here.

Columns and labels:
[1] = test system: TOV21G (NA); test: SRB proliferation assay, TOV21G (non-amplified control); assay type: cell-based; conditions: 5-day incubation, control not amplified (NA)
Source text: (§1) All cell lines were obtained from ATCC except KPL1 which was obtained from Leibniz Institute DSMZ-German Collection of Microorganisms and Cell Cultures, and SMOV2 which was obtained from Dr. Hiroaki Itamochi (Tottori University School of Medicine, Yonago, Japan; see also: ‘Establishment and characterization of human ovarian clear cell adenocarcinoma cell line (SMOV-2), and its cytotoxity by anticancer agents’, Yonamine K at al., Hum Cell., 1999, 12(3), 139-48; and ‘PPM1D Is a Potential Therapeutic Target in Ovarian Clear Cell Carcinoma’, David S. P. Tan et al., Clin Cancer Res, 2009, 15, 2269).
(§2) Representative compounds were assessed in a sulforhodamine B (SRB) proliferation assay in the cell lines shown in the Tables below, according to the following general procedure:
(§3) Cells were seeded in a 96 well plate at a number optimized for each cell line as known in the art; for example as described in Viachai et al, Nature Protocols, 2006, 1 1112-1116. Two fold dilutions of the compounds to be tested were made in culture medium so that, when diluted 5×, the final concentration in the wells was from 50 μM to 0.000191 μM (19 concentrations). A day after seeding the cells in 96 well plates, 25 μl of the compound diluted in the culture medium was added to 100 μl of the cells and incubated at 37° C. and 5% CO2 for 3 or 5 more days as required. After this time, cells were fixed by adding 10% ice cold TCA (in H2O) to 3% final concentration in the wells and by incubating at 4° C. for at least 2 h. Plates were washed 4 times in H2O and allowed to dry in the air. Added 100 μl of 0.057% SRB solution to the dried plates and incubated at room temperature for at least 30 min. Removed SRB solution from the plates and washed four times with 1% acetic acid. Plates were left overnight to dry in the air followed by addition of 100 μl of 10 mM Tris pH 10.5 to each well of the dried plates and incubation on a shaker for 5 min to solubilize the SRB. Optical density was measured at wave length of 490 nm using a plate reader and analysis performed to measure the GI50 using GraphPad PRISM.

[2] = test system: SMOV2 (A); test: SRB proliferation assay, SMOV2 (PPM1D amplified); assay type: cell-based; conditions: Homo sapiens, SMOV2, PP1MD amplified cell line (A)
Source text: as §1, §2, §3

[3] = 72 h, 3-day incubation, read-out: GI50 3-day SMOV2 (A) SRB
[4] = 120 h, 5-day incubation, read-out: GI50 5-day SMOV2 (A) SRB

SMILES	GI50 [1] [nM]	GI50 ([1]; Homo sapiens, 120 h) [nM]	GI50 [2, 3] [nM]	GI50 [2, 4] [nM]
NCCOCc1cc(F)ccc1-c1nc(-c2ccc3[nH]c(=O)oc3c2)cs1 [Compound 19, 6-(2-(2-((2-aminoethoxy)methyl)-4-fluorophenyl)thiazol-4-yl)benzo[d]oxazol-2(3H)-one]	1700	1200	1.4	5
O=C1Cc2cc(-c3csc(-c4ccc(F)cc4F)n3)c(Cl)cc2N1 [Compound 29, 6-chloro-5-(2-(2,4-difluorophenyl)thiazol-4-yl)indolin-2-one]	–	–	1900	–
O=c1[nH]c2ccc(-c3csc(-c4ccc(F)cc4CF)n3)cc2o1 [Compound 12, 6-(2-(4-fluoro-2-(fluoromethyl)phenyl)thiazol-4-yl)benzo[d]oxazol-2(3H)-one]	–	5200	2	0.3
Cc1cc(F)ccc1-c1nc(-c2ccc3[nH]c(=O)oc3c2)cs1 [Compound 2, 6-(2-(4-fluoro-2-methylphenyl)thiazol-4-yl)benzo[d]oxazol-2(3H)-one]	–	> 10000	1.6	0.5
O=c1[nH]c2ccc(-c3csc(-c4ccc(F)cc4)n3)cc2o1 [Compound 1, 6-(2-(4-fluorophenyl)thiazol-4-yl)benzo[d]oxazol-2(3H)-one]	–	> 10000	9	1.1
O=c1[nH]c2ccc(-c3csc(-c4ccc(F)c(F)c4)n3)cc2o1 [Compound 24, 6-(2-(3,4-difluorophenyl)thiazol-4-yl)benzo[d]oxazol-2(3H)-one]	–	–	290	–
CCc1cc(F)ccc1-c1nc(-c2ccc3[nH]c(=O)oc3c2)cs1 [Compound 5, 6-(2-(2-ethyl-4-fluorophenyl)thiazol-4-yl)benzo[d]oxazol-2(3H)-one]	–	> 10000	13	9.7
O=c1[nH]c2ccc(-c3csc(-c4ccc(F)cc4CN4CCOCC4)n3)cc2o1 [Compound 15, 6-(2-(4-fluoro-2-(morpholinomethyl)phenyl)thiazol-4-yl)benzo[d]oxazol-2(3H)-one]	–	–	520	–
O=c1[nH]c2ccc(-c3csc(-c4ccc(F)cc4COCc4ccccc4)n3)cc2o1 [Compound 10, 6-(2-(2-((benzyloxy)methyl)-4-fluorophenyl)thiazol-4-yl)benzo[d]oxazol-2(3H)-one]	–	–	300	–
CCc1cc(F)ccc1-c1nc(-c2ccc3[nH]c(=O)[nH]c3c2)cs1 [Compound 22, 5-(2-(2-ethyl-4-fluorophenyl)thiazol-4-yl)-1H-benzo[d]imidazol-2(3H)-one]	–	660	0.38	0.2
Cc1cc(F)ccc1-c1nc(-c2ccc3[nH]c(=O)[nH]c3c2)cs1 [Compound 4, 5-(2-(4-fluoro-2-methylphenyl)thiazol-4-yl)-1H-benzo[d]imidazol-2(3H)-one]	–	> 10000	0.2	0.1
O=c1[nH]c2ccc(-c3csc(-c4ccc(F)cc4COCCO)n3)cc2o1 [Compound 18, 6-(2-(4-fluoro-2-((2-hydroxyethoxy)methyl)phenyl)thiazol-4-yl)benzo[d]oxazol-2(3H)-one]	–	9500	1.7	0.9
Cc1c(F)ccc(-c2nc(-c3ccc4[nH]c(=O)oc4c3)cs2)c1F [Compound 26, 6-(2-(2,4-difluoro-3-methylphenyl)thiazol-4-yl)benzo[d]oxazol-2(3H)-one]	–	–	> 10000	–
O=c1[nH]c2ccc(-c3csc(-c4ccc(F)cc4COCCN4CCCC4)n3)cc2o1 [Compound 20, 6-(2-(4-fluoro-2-((2-(pyrrolidin-1-yl)ethoxy)methyl)phenyl)thiazol-4-yl)benzo[d]oxazol-2(3H)-one]	–	1500	13	11
Cc1cc(F)ccc1-c1cccc(-c2ccc3[nH]c(=O)oc3c2)n1 [Compound 31, 6-(6-(4-fluoro-2-methylphenyl)pyridin-2-yl)benzo[d]oxazol-2(3H)-one]	–	–	> 10000	–
O=c1[nH]c2ccc(-c3csc(-c4ccc(F)cc4CCO)n3)cc2o1 [Compound 9, 6-(2-(4-fluoro-2-(2-hydroxyethyl)phenyl)thiazol-4-yl)benzo[d]oxazol-2(3H)-one]	–	> 10000	7	0.6

SMILES	GI50 [1] [nM]	GI50 ([1]; Homo sapiens, 120 h) [nM]	GI50 [2, 3] [nM]	GI50 [2, 4] [nM]
O=c1[nH]c2ccc(-c3csc(-c4ccc(F)cc4F)n3)cc2o1 [Compound 11, 6-(2-(2,4-difluorophenyl)thiazol-4-yl)benzo[d]oxazol-2(3H)-one]	–	> 10000	7	0.75
Cc1cc(F)ccc1-c1nc(-c2ccc3c(c2)CC(=O)N3)cs1 [Compound 3, 5-(2-(4-fluoro-2-methylphenyl)thiazol-4-yl)indolin-2-one]	–	> 10000	1.2	0.5
CN(C)CCc1cc(F)ccc1-c1nc(-c2ccc3[nH]c(=O)oc3c2)cs1 [Compound 16, 6-(2-(2-(2-(dimethylamino)ethyl)-4-fluorophenyl)thiazol-4-yl)benzo[d]oxazol-2(3H)-one]	–	9200	40	6
O=C1Cc2cc(-c3csc(-c4ccc(F)cc4)n3)c(Cl)cc2N1 [Compound 28, 6-chloro-5-(2-(4-fluorophenyl)thiazol-4-yl)indolin-2-one]	–	–	93	–
O=c1[nH]c2ccc(-c3cccc(-c4ccc(F)cc4)n3)cc2o1 [Compound 30, 6-(6-(4-fluorophenyl)pyridin-2-yl)benzo[d]oxazol-2(3H)-one]	–	2700	280	35
Cc1cc(-c2nc(-c3ccc4[nH]c(=O)oc4c3)cs2)ccc1F [Compound 23, 6-(2-(4-fluoro-3-methylphenyl)thiazol-4-yl)benzo[d]oxazol-2(3H)-one]	–	–	250	–
O=c1[nH]c2ccc(-c3csc(-c4ccc(F)cc4CO)n3)cc2o1 [Compound 8, 6-(2-(4-fluoro-2-(hydroxymethyl)phenyl)thiazol-4-yl)benzo[d]oxazol-2(3H)-one]	–	9200	23	0.1
C=CCc1cc(F)ccc1-c1nc(-c2ccc3[nH]c(=O)oc3c2)cs1 [Compound 7, 6-(2-(2-allyl-4-fluorophenyl)thiazol-4-yl)benzo[d]oxazol-2(3H)-one]	–	–	77	–
COCCOCc1cc(F)ccc1-c1nc(-c2ccc3[nH]c(=O)oc3c2)cs1 [Compound 17, 6-(2-(4-fluoro-2-((2-methoxyethoxy)methyl)phenyl)thiazol-4-yl)benzo[d]oxazol-2(3H)-one]	–	9400	1.2	0.1
Cc1c(-c2nc(-c3ccc4[nH]c(=O)oc4c3)cs2)ccc(F)c1F [Compound 27, 6-(2-(3,4-difluoro-2-methylphenyl)thiazol-4-yl)benzo[d]oxazol-2(3H)-one]	–	> 10000	1.2	0.2
CN(C)Cc1cc(F)ccc1-c1nc(-c2ccc3[nH]c(=O)oc3c2)cs1 [Compound 14, 6-(2-(2-((dimethylamino)methyl)-4-fluorophenyl)thiazol-4-yl)benzo[d]oxazol-2(3H)-one]	–	1600	10	2
Cc1cc(F)ccc1-c1nc(-c2ccc3[nH]c(=O)n(CCN(C)C)c3c2)cs1 [Compound 21, 1-(2-(dimethylamino)ethyl)-6-(2-(4-fluoro-2-methylphenyl)thiazol-4-yl)-1H-benzo[d]imidazol-2(3H)-one]	–	7200	8	0.1
Cc1cc(F)cc(C)c1-c1nc(-c2ccc3[nH]c(=O)oc3c2)cs1 [Compound 25, 6-(2-(4-fluoro-2,6-dimethylphenyl)thiazol-4-yl)benzo[d]oxazol-2(3H)-one]	–	–	500	–
O=c1[nH]c2ccc(-c3csc(-c4ccc(F)cc4C4CC4)n3)cc2o1 [Compound 6, 6-(2-(2-cyclopropyl-4-fluorophenyl)thiazol-4-yl)benzo[d]oxazol-2(3H)-one]	–	–	200	–
CNCc1cc(F)ccc1-c1nc(-c2ccc3[nH]c(=O)oc3c2)cs1 [Compound 13, 6-(2-(4-fluoro-2-((methylamino)methyl)phenyl)thiazol-4-yl)benzo[d]oxazol-2(3H)-one]	–	1600	32	6
